Assay results from publication PMC9457600, “Synthesis, Leishmanicidal, Trypanocidal, Antiproliferative Assay and Apoptotic Induction of (2-Phenoxypyridin-3-yl)naphthalene-1(2H)-one Derivatives” (Molecules, 2022).

Columns and labels:
MRC-5 = assay: MTS assay on non-malignant MRC-5; format: cell-based; conditions: MRC5; noncancerous human cell line
Method: (§1) In our laboratory, IMTM, we generated the daunorubicin-resistant subline of CCRF-CEM cells (CEM-DNR bulk) and paclitaxel-resistant subline K562-TAX, as described previously. […] Both ABC transporters are involved in drug resistance. As a control, human fibroblasts MRC-5 and BJ cell lines were used. […] Adherent cells were passaged using PBS containing 0.25% trypsin plus 0.01% EDTA (ethylenediamine tetraacetic acid) every 2–3 days.
(§2) The antiproliferative activity of compounds was determined using a standard 3-(4,5-dimethylthiazol-2yl)-5-(3-carboxymethoxyphenyl)-2-(4-sulfophenyl)-2H-tetrazolium (MTS) reduction assay on a robotic high throughput screening platform (HighResBio, Boston, MA, USA) following treatment of cells for 3–7 days. The IC50 values were calculated from the appropriate dose–response curves with Dotmatics software (San Diego, CA, USA).

HCT116p53−/− = assay: MTS antiproliferative assay HCT116p53-/-; format: cell-based; conditions: Homo sapiens; 72 h of incubation
Description: (§3) The cell lines used were acquired from the American Type Culture Collection (ATCC), CCRF-CEM (T lymphoblastic leukemia), K562 ([…]), U2OS (osteosarcoma), HCT116 (colon carcinoma), A549 (lung adenocarcinoma) and HCT116p53−/− (HCT116 cell line mutated in p53) Horizon Discovery Ltd., (Waterbeach, Cambridge, United Kingdom).
as §1, §2

[1] = tested on: promastigotes of Leishmania (V.) braziliensis strain MHOM/CO/87/UA301; assay: MTT viability of L. braziliensis promastigotes; format: cell-based
Method: Promastigotes of Leishmania (V.) braziliensis strain MHOM/CO/87/UA301 were isolated from footpad lesions in Balb/C mice previously infected. In the process of maintenance and differentiation of the parasites, the LTI medium (tryptose 15 g/L, yeast extract 5 g/L, liver extract 2 g/L, hemin-NaOH 0.02 g/L, glucose 4 g/L, NaCl 9 g/L, KCl 0.4 g/L Na2HPO4, 7.5 g/L at pH 7.4) supplemented with 10% fetal calf serum and maintained at 29 °C was used.
Briefly, 96-well plates were used, where 2 × 10^6 parasites/mL were seeded. A concentration of 50 μM was used for each compound and an incubation time of 96 h at 29 °C. 3-(4,5-dimethylthiazol-2-yl)-2,5-diphenyl tetrazolium bromide (MTT) 1 μg/mL was added and incubated in darkness for 4 h, acidic isopropanol (4N) was added and the plate was read at 570 nm in a spectrophotometer Synergy HT (Biotek). Miltefosine was used as a reference drug. The EC50 calculation of the selected compound was performed using growth curves. Direct counting was used to monitor the proliferation of parasites, three independent experiments were performed for each concentration of the compounds evaluated. The in vitro evaluations of compounds toxicity by MTT in VERO and BMDM cells follow a methodology described above with some modifications [60].

A549 = assay: MTS antiproliferative assay A549; format: cell-based, human; conditions: 72 h of incubation
Description: as §3, §1, §2

BMDM macrophages = assay: MTT cytotoxicity on BMDM macrophages; format: cell-based; conditions: Mus musculus, 72 h
Description: T. cruzi epimastigotes MHOM/VE/92/YBM venezuelan strain were used to test the anti T. cruzi in vitro studies. The strain was maintained in a modified LIT medium with 10% fetal bovine serum (FBS). Mouse bone marrow was used to obtain BMDM macrophages. Mouse fibroblast-conditioned medium L-929 was used for the differentiation and maintenance of BMDM macrophages. We evaluated through a colorimetric method the effect of compounds 8–23 on the promastigotes of L. brasiliensis. Briefly, 96-well plates were used, where 2 × 10^6 parasites/mL were seeded. A concentration of 50 μM was used for each compound and an incubation time of 96 h at 29 °C. 3-(4,5-dimethylthiazol-2-yl)-2,5-diphenyl tetrazolium bromide (MTT) 1 μg/mL was added and incubated in darkness for 4 h, acidic isopropanol (4N) was added and the plate was read at 570 nm in a spectrophotometer Synergy HT (Biotek). Miltefosine was used as a reference drug. The EC50 calculation of the selected compound was performed using growth curves. Direct counting was used to monitor the proliferation of parasites, three independent experiments were performed for each concentration of the compounds evaluated. The in vitro evaluations of compounds toxicity by MTT in VERO and BMDM cells follow a methodology described above with some modifications. The selectivity index was calculated with SI = CC50/EC50, where CC50 was the maximum concentration range of compounds 10, 21–23 used to evaluate cytotoxicity in VERO and BMDM cells. The trypanocidal activity of compounds 8–23 was evaluated on the viability of T. cruzi epimastigotes through a colorimetric method adapted with minor modifications. 2 × 10^6 parasites/mL were seeded in a 96-well plate, adding 50 μM of each derivative dissolved in DMSO (final concentration remained below 1%). The plate was incubated for 96 h at 29 °C. Then, 1 μg/mL of 3-(4,5-dimethylthiazol-2-yl)-2,5-diphenyl tetrazolium bromide (MTT) was added and incubated in darkness for 4 h. After this time, acidic isopropanol (4N) was added and the plate was read at 570 nm in a spectrophotometer Synergy HT (Biotek). Benznidazole was used as a reference drug. The in vitro evaluations of compounds toxicity by MTT in VERO and BMDM cells follow a methodology described above with some modifications. Cells were counted in suspension and seeded at 20 × 10^3 cells/well. The test was carried out in triplicate on 96-well microplates in different concentrations: 50 μM, 100 μM, 200 μM and 300 μM, untreated cells and reference drug (benznidazole) controls.

CCRF-CEM = assay: MTS antiproliferative assay CCRF-CEM; format: cell-based; conditions: Homo sapiens, 72 h of incubation
Description: as §3, §1, §2

K562 = assay: MTS antiproliferative assay K562; format: cell-based, human; conditions: for IC50: 72 h of incubation
Description: as §3, §1, §2

COc1ccc2c(c1)CC/C(=C\c1cccnc1Oc1ccc(Cl)cc1)C2=O [Compound 22, (E)-2-{[2-(4-Chlorophenoxy)pyridin-3-yl]methylene}-3,4-dihydro-6-methoxynaphthalen-1(2H)-one]
IC50 (MRC-5): > 50 µM
IC50 (HCT116p53−/−): 33.9 ± 5.63 µM
EC50 ([1]; 72 h, promastigotes): 12.4 ± 1.15 µM
SIB/Lb selectivity index on L. braziliensis/BMDM ([1]; SI = CC50/EC50): 38
IC50 (A549): 9.74 ± 1.28 µM
IC50 (A549; Homo sapiens, A549, 72 h): 9.64 to 9.74 µM
EC50 (BMDM macrophages): 468 µM
IC50 (CCRF-CEM): 5.23 ± 0.3 µM
IC50 (K562): 3.91 ± 0.14 µM
IC50 (K562; Homo sapiens, K562, 72 h): 3.91 to 4.33 µM
times higher cytotoxicity against K562 than K562-TAX (K562; ratio of IC50 values): 5.5 times
